Source: paper PMC6013238, “Development of novel NEMO-binding domain mimetics for inhibiting IKK/NF-κB activation” (PLoS Biology, 2018)
Several values for one entry are separate records, joined by “and”; a condition that tells them apart may be missing. Equal values may be shown once.

Experiments:
[1] = Serum AST, ALT and ALP of chronically treated mdx mice; format: in vivo, mouse; details: for Liver toxicity (serum AST, ALT, ALP): chronically treated mdx mice, 30 mg/kg; for ALP Final Concentration / ALT Final Concentration / AST Final Concentration: serum, individual mouse (FigS3B)
[2] = system: NF-κB DNA binding activity; experiment: EMSA of NF-κB DNA binding activity in muscle of mdx mice after a single i.p. dose; format: in vivo, mouse; details: for NF-κB DNA binding activity in quadriceps (EMSA): mdx mice, single i.p. 10 mg/kg, 1 h and 2 h post injection
Method: To confirm that the NBD mimetics reduce IKK kinase activity, phosphorylation of IκBα by IKK in response to 10 ng/ml of TNF-α was measured by western blot at 0, 5, and 10 min after stimulation. […] To determine whether the mimetics also reduce NF-κB DNA binding activity, electrophoretic mobility shift assay (EMSA) was conducted both in vitro and in vivo. […] The addition of acetonitrile increased the stability of both ZINC compounds, especially ZINC 5 (Fig 3D).
Fig 3 Two identified small molecules reduce NF-κB DNA binding activity in vivo and in vitro. (A) Levels of p-IκBα with or without treatment in response to TNF-α were determined by western blot analysis. HEK293 cells were pretreated with DMSO, ZINC12909780 (100 μM), and ZINC5 (100 μM) for 30 min followed by the stimulation of 10 ng/ml of TNF-α for 0, 5, and 10 min. Cell lysates were prepared for immunoblot against p-IκBα. GAPDH was used as a loading control. (B) EMSA analysis detecting NF-κB DNA binding activity was performed in C2C12 myoblasts. Cells were pretreated with 200 μM of DMSO, ZINC12909780, and ZINC5 in serum-free media for 1 h. TNF-α was then added to a final concentration of 10 ng/ml and incubated for 15 min. Nuclear extract was obtained for EMSA analysis. (C) EMSA analysis assessing NF-κB DNA binding activity in vivo was performed with quadriceps from mdx mice. […] Quadriceps was harvested at 1 h and 2 h post injection for EMSA analysis. (D) The time-course pharmacokinetics of ZINC5 and ZINC12909780 in FBS media or FBS media containing acetonitrile. Underlying data can be found in S1 Data. EMSA, electrophoretic mobility shift assay; HEK293, human embryonic kidney 293 cells; i.p., intraperitoneal; NF-κB, nuclear factor κB; t1/2, half-life; TNF-α; tumor necrosis factor α. […]
Supplementary file pbio.2004663.s005.tif: S4 Fig Chronic treatment with NBD mimetics improves muscle pathology by inhibiting NF-κB DNA binding activity in mdx mice. (A) Quantification of percentage of centralized myonuclei. […]

[3] = system: NF-κB activation; experiment: NF-κB firefly luciferase reporter assay, TNF-α-stimulated stably transfected HEK293 cells; format: cell-based, human; details: for NF-κB luciferase activity normalized to vehicle: Fig 2C, derivatives at 100 μM, TNF-α 10 ng/ml 3 h, vehicle = 100, single experiments; for NF-κB luciferase activity normalized to control: control = 100
Method: To determine whether the small molecules identified by the in silico screening inhibit NF-κB activation, a HEK293 cell line stably expressing a luciferase reporter driven by a synthetic, NF-κB-dependent promoter was utilized. To induce NF-κB activation, cells were treated with 10 ng/mL of TNF-α and harvested 3 h post treatment for analysis of luciferase activity. […] To determine whether ZINC12909780 inhibits NF-κB in a dose-dependent manner, concentrations were tested at 0, 6.25, 25, 50, and 100 μM.
Luciferase activity was normalized to untreated stimulated control cells. […] Cell viability was calculated by normalizing to untreated cells. […] Underlying data can be found in S1 Data.
HEK293 cells stably transfected with luciferase reporter plasmid driven by NF-κB were seeded in 96-well plates in triplicate and pretreated with DMSO or varying small molecules at indicated concentration for 30 min, followed by the stimulation of 10 ng/ml of TNF-α for 3 h. Cells were washed with PBS once and harvested in Passive Lysis Buffer (Promega, Madison, WI). Luciferase assay (Promega) was performed by using a luminometer according to the manufacturer’s instructions.

Row | SMILES | Liver toxicity (serum AST, ALT, ALP) [1] | ALP Final Concentration [1] | ALT Final Concentration [1] | AST Final Concentration [1] | NF-κB DNA binding activity in quadriceps (EMSA) [2] | also measured
1 | O=C(CNCCc1cc(F)cc(F)c1)Nc1ccc(Cl)cn1 [SR12460] | no overt liver toxicity | 195 U/L and 170 U/L and 160 U/L | 215 U/L and 185 U/L | 1245 U/L and 1330 U/L and 1415 U/L |  | 
2 | O=C(CNc1ccc(Cl)cn1)NCCc1cccc(Br)c1 [SR12343] | no overt liver toxicity | 170 U/L and 225 U/L and 145 U/L | 125 U/L and 160 U/L and 150 U/L and 260 U/L | 775 U/L and 1030 U/L and 875 U/L and 1560 U/L |  | NF-κB DNA binding in TA muscle (EMSA) ([2]; 9-wk-old mdx mice, single injection 30 mg/kg i.p., 2 h post injection): reduction in NF-κB DNA binding
3 | O=C(COC(=O)Cc1ccccc1F)Nc1ccc(Cl)cn1 [ZINC5] |  |  |  |  | inhibited NF-κB DNA binding activity | NF-κB luciferase activity normalized to vehicle [3]: 58.79 and 64.16 and 89.81 and 46.87 and 48.05; NF-κB luciferase activity normalized to vehicle ([3]; listed as Zinc5): lowered NF-κB activity robustly; NF-κB luciferase activity normalized to control ([3]; Fig 2E, 25 μM): 78.88 and 74.23 and 94.1 and 85.57 and 85.27; NF-κB luciferase activity normalized to control ([3]; Fig 2E, 50 μM): 78.97 and 56.84 and 56.56 and 66.34; NF-κB luciferase activity normalized to control ([3]; Fig 2E, 100 μM): 40.8 and 50.51 and 60.75 and 33.05 and 42.78
4 | Nc1ncccc1C(=O)OCC(=O)Nc1ccc(Cl)cc1F [ZINC12909780] |  |  |  |  | inhibited NF-κB DNA binding activity | NF-κB luciferase activity normalized to control ([3]; Fig 2B, 6.25 μM (log 0.79588)): 96.2175 and 102.44 and 115.164; NF-κB luciferase activity normalized to control ([3]; Fig 2B, 25 μM (log 1.39794)): 93.2591 and 96.1802 and 73.5256
